# Test results from US20260138970A1, “MODULATORS OF THE CALCIUM SIGNALING CASCADE” (FONDAZIONE TELETHON ETS, priority 2022, published 2026).
# Tests used:
# FRT cells = assay: Fluo-4 Ca2+ mobilization assay in parental (null) FRT cells; type: cell-based, rat; conditions: for potentiation of the Ca2+ increase elicited by UTP, multiple concentrations: UTP 0.25 μM, compounds 1-80 μM, vs vehicle (DMSO), FIG. 8
# Description: Experiments were performed using the microplate reader described for the HS-YFP assay. FRT and HEK293 cells were cultured until confluence in 96-well microplates (3603, Corning). Cells were washed 2 times with PBS (150 μl/wash) and then loaded for 1 h at 37° C. with 5 μM Fluo-4/AM (Thermo Fisher Scientific; catalog number: F23917) in PBS containing 10 mM glucose, 0.5 mM sulfinpyrazone, and 1% fetal bovine serum. […] Each well was assayed individually. Fluo-4 fluorescence (500 nm excitation, 535 nm emission) was detected every 200 ms for 16-40 s. Two seconds after the start of fluorescence recording, the reader automatically injected 165 μl of a modified PBS containing 136 mM KCl instead of NaCl. This solution also contained 10 mM glucose, 0.5 mM sulfinpyrazone, and UTP or SLIGR-NH2 (CAS #171436-38-7) at a final concentration that depended on the specific cell type. For UTP we used: 0.25 μM for FRT; 1 μM for HEKR2; 5 μM for HEK3XKO, HEKR1, and HEKR3. For SLIGR-NH2 we used: 10 μM for HEKR1; 4 μM for HEKR2. These concentrations were chosen to elicit ˜20% of maximal effect based on UTP and SLIGR-NH2 dose-response relationships. The lower agonist concentrations used for HEKR2 cells, compared to HEKR1 cells, are consistent with the higher affinity of ITPR2 for IP3 (16). The Fluo-4 fluorescence increase was quantified using a procedure compiled in Microsoft Excel after background subtraction and normalization for the initial value measured before UTP addition.
# In a further experimental setting, experiments were performed using as above the FLUOstar Omega (BMG Labtech, Offenburg, Germany) microplate reader equipped with syringe pumps and optical excitation/emission filters optimized for yellow fluorescent protein (YFP) fluorescence (ET500/20× and ET535/30m, respectively; Chroma Technology Corporation). FRT and Chem-1 cells were cultured until confluence in 96-well microplates (cc3603, Corning). Cells were washed 2 times with PBS (150 μl/wash) and then loaded for 1 h at 37° C. with 5 μM Fluo-4/AM (Thermo Fisher Scientific; catalog number: F23917) in PBS containing 10 mM glucose, 0.5 mM sulfinpyrazone, and 1% fetal bovine serum. […] Each well was assayed individually. Fluo-4 fluorescence (500 nm excitation, 535 nm emission) was detected every 200 ms for 16-40 s. Two seconds after the start of fluorescence recording, the reader automatically injected 165 μl of a modified PBS containing 136 mM KCl instead of NaCl. This solution also contained, in addition to 10 mM glucose and 0.5 mM sulfinpyrazone, the following agonists: UTP (U6625, Merck) or CCK8s (23371, Cayman Chemical). The Fluo-4 fluorescence increase was quantified using a procedure compiled in Microsoft Excel after background subtraction and normalization for the initial value measured before UTP or CCK8s addition.
# TMEM16A = assay: HS-YFP assay in ITPR-defective HEK293 cells transiently transfected with TMEM16A; type: cell-based; conditions: ionomycin 1 μM, FIG. 2D
# ENaC = assay: Short-circuit current recordings on human cultured bronchial epithelia, ENaC function; type: cell-based; conditions: apical addition; ARN7149 10 μM, ARN11391 20 μM, ARN4550 20 μM, UTP 10 nM; FIG. 9
# Description: In a further experimental setting, snapwell supports (cc3801, Corning) carrying differentiated bronchial epithelia generated in vitro were mounted in a vertical chamber resembling an Ussing system with internal fluid circulation (EM-CSYS-8, Physiologic Instruments, San Diego, CA, USA). The apical and basolateral hemichambers were filled with a solution containing (in mM): 126 NaCl, 0.38 KH2PO4, 2.13 K2HPO4, 1 MgSO4, 1 CaCl2), 24 NaHCO3, and 10 glucose. Both sides were continuously bubbled with a gas mixture containing 5% CO2 and 95% air. The temperature of the solution was kept at 37° C. throughout the experiment.
# During recordings, the following molecules (in addition to ARN7149, ARN11391, and ARN4550) were added in the apical solution: elastase (SE2093002, Serva); UTP (U6625, Merck); amiloride (A7410, Merck). Transepithelial voltage was short-circuited with a voltage-clamp (VCC MC8, Physiologic Instruments, San Diego, CA, USA) connected to the apical and basolateral chambers via Ag—AgCl electrodes and agar bridges (2% agar in 1 M KCl). The offset between voltage electrodes and the fluid resistance were cancelled before experiments. The resulting short-circuited current from each channel was recorded on a personal computer with the Acquire & Analize 2.3 software (Physiologic Instruments, San Diego, CA, USA).
# PLC = PLC assay in FRT cells expressing PH-PLC-GFP sensor; type: cell-based; conditions: pre-incubation with BAPTA/AM; FIG. 3B
# Description: FRT cells with stable expression of PLC6-PH-GFP, generated in the laboratory of inventors, were cultured up to subconfluent condition in p-Plate96 microplates (Ibidi). Each well of a 96-well microplate was washed 3 times, leaving 125 μl of phosphate-buffered saline (PBS) containing compounds at 10 μM final concentration or vehicle. After 20 min of incubation at 37° C., microplate was moved on the stage of an inverted microscope equipped with GFP excitation/emission filters, 40×oil immersion objective (Olympus, Segrate, Italy), Lambda DG4 illumination system (Sutter Instrument Co., Novato, CA, USA), Prime cmos camera (Photometrics, Tucson, AZ, USA) and MetaMorph imaging acquisition software (Molecular Devices, Sunnyvale, CA, USA). Time-lapse experiments were carried out with 50 ms exposure time, 20 frame/s rate, and 2.4 min total duration. After 20 s and 90 s, UTP 0.25 μM and 100 μM (final concentrations) was respectively added. Analysis was performed with MetaMorph software, by quantifying GFP fluorescence cytoplasmic accumulation in manually selected single cell regions of interest (ROI). After background subtraction, fluorescence recordings were normalized for the initial value.
# P2RY2 = biological target: T1, P2RY2 (Rattus norvegicus, UniProt P41232); assay: Fluo-4 Ca2+ assay in null FRT cells with P2RY2 antagonist; type: cell-based; conditions: AR-C118925XX 10 μM; UTP 0.25 μM; FIG. 5B
# T1 construct: endogenous in cells; host or cells: null (parental) FRT cells
# Description: Experiments were performed using the microplate reader described for the HS-YFP assay. FRT and HEK293 cells were cultured until confluence in 96-well microplates (3603, Corning). Cells were washed 2 times with PBS (150 μl/wash) and then loaded for 1 h at 37° C. with 5 μM Fluo-4/AM (Thermo Fisher Scientific; catalog number: F23917) in PBS containing 10 mM glucose, 0.5 mM sulfinpyrazone, and 1% fetal bovine serum. After loading, cells were washed 2 times with PBS-glucose-sulfinpyrazone (150 μl/wash) and incubated for 20 min at 37° C. with 60 μl of PBS plus 10 mM glucose and 0.5 mM sulfinpyrazone containing compounds of interest at 10 μM final concentration or vehicle. Each well was assayed individually. Fluo-4 fluorescence (500 nm excitation, 535 nm emission) was detected every 200 ms for 16-40 s. Two seconds after the start of fluorescence recording, the reader automatically injected 165 μl of a modified PBS containing 136 mM KCl instead of NaCl. This solution also contained 10 mM glucose, 0.5 mM sulfinpyrazone, and UTP or SLIGR-NH2 (CAS #171436-38-7) at a final concentration that depended on the specific cell type. […] The Fluo-4 fluorescence increase was quantified using a procedure compiled in Microsoft Excel after background subtraction and normalization for the initial value measured before UTP addition.
# T1 sequence (P41232 whole entry): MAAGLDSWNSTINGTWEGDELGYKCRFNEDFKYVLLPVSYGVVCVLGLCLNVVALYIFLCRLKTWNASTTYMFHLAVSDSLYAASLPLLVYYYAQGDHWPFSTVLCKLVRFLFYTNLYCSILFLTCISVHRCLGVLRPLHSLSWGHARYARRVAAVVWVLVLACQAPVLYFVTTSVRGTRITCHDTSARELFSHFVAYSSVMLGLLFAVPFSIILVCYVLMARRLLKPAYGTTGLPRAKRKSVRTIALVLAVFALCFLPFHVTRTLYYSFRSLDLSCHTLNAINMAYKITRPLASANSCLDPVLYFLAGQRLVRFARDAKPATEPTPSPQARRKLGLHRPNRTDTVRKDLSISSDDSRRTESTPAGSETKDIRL
compound,measurement,setting,value
"COCCN(C(=O)c1cc(OC)c(OC)c(OC)c1)c1nc(-c2ccccc2)cs1 [Eact, reference compound]",direct Ca2+ mobilization in the absence of UTP (Fluo-4),"FRT cells; acute addition, compounds 10 μM, Eact 5 μM, FIG. 2B",elicits Ca^2+ influx
"C[C@H](CCC(=O)O)C[C@H](C)C[C@H](C)C(=O)/C=C(\O)[C@H](C)C[C@H](C)C/C=C/[C@@H](C)[C@@H](O)[C@@H](C)[C@@H](O)C[C@@H]1CC[C@@](C)([C@H]2CC[C@@](C)([C@@H](C)O)O2)O1 [ionomycin, reference compound]",activation of TMEM16A when Ca2+ directly increased (HS-YFP),TMEM16A,large effect
"O=C(Nc1ccccc1OCC1CCCCO1)C1CC2C=CC1C2 (stereo not shown) [compound 7, N-[2-(Tetrahydropyran-2-ylmethoxy)phenyl]bicyclo[2.2.1]hept-5-ene-2-carboxamide]","potentiation of the Ca2+ increase elicited by UTP, multiple concentrations",FRT cells,dose-dependent potentiation
"O=c1ccn([C@@H]2O[C@H](COP(=O)(O)OP(=O)(O)OP(=O)(O)O)[C@@H](O)[C@H]2O)c(=O)[nH]1 [UTP, reference compound]","ENaC current decay (ENaC inhibition), short-circuit current",ENaC,ENaC current decay
"CC(=O)OCOC(=O)CN(CC(=O)OCOC(C)=O)c1ccccc1OCCOc1ccccc1N(CC(=O)OCOC(C)=O)CC(=O)OCOC(C)=O [BAPTA/AM, 1,2-Bis(2-aminophenoxy)ethane-N,N,N′,N′-tetraacetic acid tetrakis(acetoxymethyl ester), reference compound]",PLC activity with/without compounds after Ca2+ chelation,PLC,markedly inhibited
Cc1ccc2c(c1)C=Cc1cc(C)ccc1C2c1cn(Cc2ccc(C(=O)Nc3nn[nH]n3)o2)c(=O)[nH]c1=S [AR-C118925XX],effect of UTP alone and of UTP plus potentiators on Ca2+ mobilization,P2RY2,completely blocked
"O=C(Nc1ccccc1OCC1CCCCO1)C1CCCN(c2ccccn2)C1 (stereo not shown) [compound 6, 1-(2-Pyridyl)-N-[2-(tetrahydropyran-2-ylmethoxy)phenyl]piperidine-3-carboxamide]","potentiation of the Ca2+ increase elicited by UTP, multiple concentrations",FRT cells,dose-dependent potentiation
